Assay results reported in the supplement of paper PMC8671470.

Columns and labels:
Test in all cases: cell viability (% survival relative to DMSO control); higher = less cytotoxic
Settings in all cases: 72 h
Mono-Mac-6 = tested on: Mono-Mac-6
Protocol: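 8x8 drug-combination matrices (0–5000 nM; rosiglitazone and lestaurtinib 0–1000 nM) were run in Mono-Mac-6 cells for 72 h with CellTiter-Glo read-out. Survival is normalised to DMSO and 10 µM bortezomib and clipped at 100%.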

MV4-11 = tested on: MV4-11
Protocol: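 8x8 drug-combination matrices (0–5000 nM; rosiglitazone and lestaurtinib 0–1000 nM) were run in MV4-11 cells for 72 h with CellTiter-Glo read-out. Survival is normalised to DMSO and 10 µM bortezomib and clipped at 100%.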

BV-173 = tested on: BV-173
Protocol: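 8x8 drug-combination matrices (0–5000 nM; rosiglitazone and lestaurtinib 0–1000 nM) were run in BV-173 cells for 72 h with CellTiter-Glo read-out. Survival is normalised to DMSO and 10 µM bortezomib and clipped at 100%.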

O=C(C1CC1)N1CC[C@@H](C=C2NNC(=O)N2c2ccc(-c3ccc4occc4c3)cc2)C1 + CS(=O)(=O)N1CCN(Cc2cc3nc(-c4cccc5[nH]ncc45)nc(N4CCOCC4)c3s2)CC1 [Pictilisib]
cell viability [%]
Settings	drug1 concentration 5 nM	drug1 concentration 10 nM	drug1 concentration 50 nM	drug1 concentration 100 nM	drug1 concentration 500 nM	drug1 concentration 1000 nM	drug1 concentration 5000 nM
BV-173, drug2 concentration 5 nM	> 100	> 100	95	> 100	84.4	77.5	84.8
BV-173, drug2 concentration 10 nM	> 100	> 100	> 100	> 100	95.5	> 100	92.2
BV-173, drug2 concentration 50 nM	> 100	> 100	> 100	> 100	94.4	99.1	59.7
BV-173, drug2 concentration 100 nM	81	> 100	> 100	94.8	94.3	87.4	> 100
BV-173, drug2 concentration 500 nM	> 100	> 100	93.8	> 100	> 100	98.7	89.3
BV-173, drug2 concentration 1000 nM	89.7	99.2	> 100	92.8	80	99.9	78.4
BV-173, drug2 concentration 5000 nM	87.6	92.1	84.8	> 100	75.7	70.6	> 100
MV4-11, drug2 concentration 5 nM	> 100	91.3	> 100	89.5	> 100	76.8	> 100
MV4-11, drug2 concentration 10 nM	> 100	89.1	> 100	91.9	72	94.3	> 100
MV4-11, drug2 concentration 50 nM	> 100	99.9	94.2	92	93.5	> 100	56.5
MV4-11, drug2 concentration 100 nM	89.5	96.8	99.6	> 100	> 100	94.6	> 100
MV4-11, drug2 concentration 500 nM	> 100	95.5	> 100	94	94.4	94.2	80.3
MV4-11, drug2 concentration 1000 nM	91.9	71.7	87.8	80.5	87.1	> 100	74.8
MV4-11, drug2 concentration 5000 nM	76.5	49.4	58.1	68.8	69.9	44.4	55.6
Mono-Mac-6, drug2 concentration 5 nM	> 100	94.2	88.6	86.5	92.2	81.2	88.3
Mono-Mac-6, drug2 concentration 10 nM	89.9	> 100	85.6	81	78.2	81.2	93.1
Mono-Mac-6, drug2 concentration 50 nM	80.5	> 100	81.7	69.7	74.8	99	68.1
Mono-Mac-6, drug2 concentration 100 nM	63	75.5	91.8	75.3	> 100	94.4	84.6
Mono-Mac-6, drug2 concentration 500 nM	70	83.9	> 100	87.7	73	86.2	81.4
Mono-Mac-6, drug2 concentration 1000 nM	53.7	71	52.4	87.1	71.3	77.1	69.4
Mono-Mac-6, drug2 concentration 5000 nM	51.6	27.5	37.5	48.3	49.9	24.2	49.3

O=C(C1CC1)N1CC[C@@H](C=C2NNC(=O)N2c2ccc(-c3ccc4occc4c3)cc2)C1 + C[C@H](NC(=O)c1sccc1OCc1ccc(Cl)cc1)c1ccccc1 [as1949490]
cell viability [%]
Settings	drug1 concentration 5 nM	drug1 concentration 10 nM	drug1 concentration 50 nM	drug1 concentration 100 nM	drug1 concentration 500 nM	drug1 concentration 1000 nM	drug1 concentration 5000 nM
BV-173, drug2 concentration 5 nM	> 100	> 100	> 100	> 100	91.8	93.3	80.6
BV-173, drug2 concentration 10 nM	94.1	> 100	> 100	> 100	> 100	> 100	> 100
BV-173, drug2 concentration 50 nM	> 100	> 100	> 100	85	> 100	88.7	96.7
BV-173, drug2 concentration 100 nM	> 100	80.2	> 100	88.5	> 100	96	84.7
BV-173, drug2 concentration 500 nM	85.5	> 100	84.8	> 100	91.2	92.3	77.2
BV-173, drug2 concentration 1000 nM	> 100	87.6	99.3	> 100	80.2	73.6	58.5
BV-173, drug2 concentration 5000 nM	65.2	44.9	73.8	46	44.2	57.2	0
MV4-11, drug2 concentration 5 nM	> 100	> 100	> 100	83.1	> 100	96.5	> 100
MV4-11, drug2 concentration 10 nM	> 100	> 100	> 100	> 100	> 100	> 100	> 100
MV4-11, drug2 concentration 50 nM	> 100	99	> 100	> 100	> 100	> 100	> 100
MV4-11, drug2 concentration 100 nM	> 100	80.4	> 100	92.8	92.2	> 100	98.4
MV4-11, drug2 concentration 500 nM	> 100	96.5	> 100	> 100	> 100	93.8	> 100
MV4-11, drug2 concentration 1000 nM	> 100	> 100	98	89.7	86.3	> 100	61.8
MV4-11, drug2 concentration 5000 nM	77.3	85.6	71.7	79.5	62	58.4	72
Mono-Mac-6, drug2 concentration 5 nM	77.9	> 100	94.8	82.5	> 100	88.6	91.3
Mono-Mac-6, drug2 concentration 10 nM	> 100	> 100	> 100	84.4	> 100	98.4	> 100
Mono-Mac-6, drug2 concentration 50 nM	> 100	> 100	> 100	> 100	88.9	91.8	> 100
Mono-Mac-6, drug2 concentration 100 nM	90	96.4	> 100	94.7	77.3	> 100	69.7
Mono-Mac-6, drug2 concentration 500 nM	90.5	78	74.2	> 100	> 100	> 100	80.7
Mono-Mac-6, drug2 concentration 1000 nM	95	> 100	97.3	> 100	77.3	91.1	75.6
Mono-Mac-6, drug2 concentration 5000 nM	79	73.5	> 100	96.3	73.3	91.3	54.6

O=C(C1CC1)N1CC[C@@H](C=C2NNC(=O)N2c2ccc(-c3ccc4occc4c3)cc2)C1 + O=C(c1c2ccccc2cc2ccccc12)N1CCC(N2CCC[C@@H](C(=O)N3CCOCC3)C2)CC1 [CP-640186]
cell viability [%]
Settings	drug1 concentration 5 nM	drug1 concentration 10 nM	drug1 concentration 50 nM	drug1 concentration 100 nM	drug1 concentration 500 nM	drug1 concentration 1000 nM	drug1 concentration 5000 nM
BV-173, drug2 concentration 5 nM	96.3	> 100	> 100	> 100	97.3	98.1	77.8
BV-173, drug2 concentration 10 nM	> 100	> 100	87.8	> 100	> 100	96.1	58.3
BV-173, drug2 concentration 50 nM	> 100	> 100	> 100	> 100	91.1	78.9	97.1
BV-173, drug2 concentration 100 nM	> 100	> 100	> 100	> 100	> 100	> 100	> 100
BV-173, drug2 concentration 500 nM	> 100	> 100	> 100	> 100	> 100	> 100	96.6
BV-173, drug2 concentration 1000 nM	86.4	> 100	> 100	91.9	> 100	> 100	> 100
BV-173, drug2 concentration 5000 nM	> 100	> 100	87.5	99.5	91.6	> 100	> 100
MV4-11, drug2 concentration 5 nM	95.4	96.1	93.4	98.1	97.2	100	> 100
MV4-11, drug2 concentration 10 nM	89.8	> 100	> 100	> 100	> 100	> 100	88.2
MV4-11, drug2 concentration 50 nM	> 100	98.5	> 100	> 100	83.6	> 100	> 100
MV4-11, drug2 concentration 100 nM	98.3	> 100	> 100	> 100	> 100	> 100	> 100
MV4-11, drug2 concentration 500 nM	> 100	91	88.9	90.1	> 100	> 100	97.5
MV4-11, drug2 concentration 1000 nM	> 100	97.9	98.6	> 100	> 100	> 100	> 100
MV4-11, drug2 concentration 5000 nM	98.1	86	96.1	> 100	91.9	86.4	92.3
Mono-Mac-6, drug2 concentration 5 nM	77.8	> 100	88.2	84.8	85.5	88.8	> 100
Mono-Mac-6, drug2 concentration 10 nM	> 100	> 100	> 100	90.7	81.2	> 100	63.7
Mono-Mac-6, drug2 concentration 50 nM	99.3	89.7	> 100	> 100	> 100	> 100	> 100
Mono-Mac-6, drug2 concentration 100 nM	87.7	> 100	> 100	99.8	> 100	91.2	87.4
Mono-Mac-6, drug2 concentration 500 nM	95.2	87	87.4	86.2	> 100	> 100	79.5
Mono-Mac-6, drug2 concentration 1000 nM	88.8	> 100	> 100	84.9	> 100	98.8	99.4
Mono-Mac-6, drug2 concentration 5000 nM	> 100	70.2	98.1	99.4	81.6	72.4	> 100

CC(C)c1onc(-c2c(Cl)cccc2Cl)c1COc1ccc(/C=C/c2cccc(C(=O)O)c2)c(Cl)c1 [GW4064] + Cn1cc(-c2ccncc2)c(-c2ccc(OCc3ccc4ccccc4n3)cc2)n1 [PF-02545920]
cell viability [%]
Settings	drug1 concentration 5 nM	drug1 concentration 10 nM	drug1 concentration 50 nM	drug1 concentration 100 nM	drug1 concentration 500 nM	drug1 concentration 1000 nM	drug1 concentration 5000 nM
BV-173, drug2 concentration 5 nM	> 100	> 100	> 100	90.6	> 100	> 100	> 100
BV-173, drug2 concentration 10 nM	> 100	95.5	95.6	> 100	> 100	> 100	98
BV-173, drug2 concentration 50 nM	> 100	88.5	> 100	> 100	> 100	80.7	74
BV-173, drug2 concentration 100 nM	> 100	> 100	> 100	> 100	> 100	> 100	97
BV-173, drug2 concentration 500 nM	97.3	93.2	96	> 100	> 100	> 100	> 100
BV-173, drug2 concentration 1000 nM	> 100	> 100	82.7	99.2	95.5	87.3	81.7
BV-173, drug2 concentration 5000 nM	90.7	90.2	79.3	96.2	92.8	78.5	> 100
MV4-11, drug2 concentration 5 nM	90.6	> 100	> 100	95.2	> 100	90.8	90.2
MV4-11, drug2 concentration 10 nM	> 100	> 100	91	99.5	94.5	> 100	95.5
MV4-11, drug2 concentration 50 nM	> 100	> 100	> 100	> 100	> 100	53.1	96.7
MV4-11, drug2 concentration 100 nM	97.4	> 100	> 100	96.7	> 100	> 100	89.1
MV4-11, drug2 concentration 500 nM	> 100	96.2	> 100	> 100	70.1	> 100	77.9
MV4-11, drug2 concentration 1000 nM	> 100	> 100	97.2	91.1	95.5	80.8	73.6
MV4-11, drug2 concentration 5000 nM	48.9	54	49.3	53.3	54.9	50.4	46.4
Mono-Mac-6, drug2 concentration 5 nM	> 100	> 100	> 100	85.7	80.4	88.9	> 100
Mono-Mac-6, drug2 concentration 10 nM	92.5	> 100	79.3	78.5	87.6	94.3	99.8
Mono-Mac-6, drug2 concentration 50 nM	> 100	> 100	> 100	86	97.2	66.9	99.9
Mono-Mac-6, drug2 concentration 100 nM	> 100	90.5	> 100	86.8	> 100	> 100	82.2
Mono-Mac-6, drug2 concentration 500 nM	81.2	69.3	> 100	> 100	94.8	87.9	> 100
Mono-Mac-6, drug2 concentration 1000 nM	93.3	> 100	77.2	98.6	96.1	89.8	81.4
Mono-Mac-6, drug2 concentration 5000 nM	74.5	91.6	65	76.7	96.5	85.1	87.7
